{"source": "patent US10155987B2", "about": "“Methods of predicting resistance to JAK inhibitor therapy” (Dana-Farber Cancer Institute, Inc., priority 2012, dated 2018)", "key": {"[1]": {"test_system": "BaF3.EpoR cells expressing JAK2V617F with G935R mutation", "assay": "Cell growth in response to JAK2 inhibitors, G935R mutant", "type": "cell-based, murine"}, "[2]": {"test_system": "BaF3.EpoR cells expressing JAK2V617F with Y931C mutation", "assay": "Cell growth in response to JAK2 inhibitors, Y931C mutant", "type": "cell-based, murine"}, "[3]": {"test_system": "BaF3.EpoR cells expressing JAK2V617F with Y931C, G935R, R938L, 1960V or E985K mutation", "assay": "Cell growth in response to JAK2 inhibitors, all five resistance mutants (stated together)", "type": "cell-based, murine", "conditions": "summary statement", "experimental": "Cell growth in response to various drug concentrations was measured by trypan blue (Sigma) exclusion or with the CellTiter 96® AQueous One Solution Cell Proliferation Assay reagent (Promega, Madison, Wis.).\nBaF3.EpoR cell lines expressing potential drug resistant mutant JAK2V617F were generated by retroviral infection, as described previously. […] Polyclonal populations of these cells were used to determine changes in growth in response to various JAK2 inhibitors."}, "JAK2": {"molecular_target": "JAK2 (Homo sapiens, UniProt O60674)", "sequence (O60674 whole entry, species assumed)": "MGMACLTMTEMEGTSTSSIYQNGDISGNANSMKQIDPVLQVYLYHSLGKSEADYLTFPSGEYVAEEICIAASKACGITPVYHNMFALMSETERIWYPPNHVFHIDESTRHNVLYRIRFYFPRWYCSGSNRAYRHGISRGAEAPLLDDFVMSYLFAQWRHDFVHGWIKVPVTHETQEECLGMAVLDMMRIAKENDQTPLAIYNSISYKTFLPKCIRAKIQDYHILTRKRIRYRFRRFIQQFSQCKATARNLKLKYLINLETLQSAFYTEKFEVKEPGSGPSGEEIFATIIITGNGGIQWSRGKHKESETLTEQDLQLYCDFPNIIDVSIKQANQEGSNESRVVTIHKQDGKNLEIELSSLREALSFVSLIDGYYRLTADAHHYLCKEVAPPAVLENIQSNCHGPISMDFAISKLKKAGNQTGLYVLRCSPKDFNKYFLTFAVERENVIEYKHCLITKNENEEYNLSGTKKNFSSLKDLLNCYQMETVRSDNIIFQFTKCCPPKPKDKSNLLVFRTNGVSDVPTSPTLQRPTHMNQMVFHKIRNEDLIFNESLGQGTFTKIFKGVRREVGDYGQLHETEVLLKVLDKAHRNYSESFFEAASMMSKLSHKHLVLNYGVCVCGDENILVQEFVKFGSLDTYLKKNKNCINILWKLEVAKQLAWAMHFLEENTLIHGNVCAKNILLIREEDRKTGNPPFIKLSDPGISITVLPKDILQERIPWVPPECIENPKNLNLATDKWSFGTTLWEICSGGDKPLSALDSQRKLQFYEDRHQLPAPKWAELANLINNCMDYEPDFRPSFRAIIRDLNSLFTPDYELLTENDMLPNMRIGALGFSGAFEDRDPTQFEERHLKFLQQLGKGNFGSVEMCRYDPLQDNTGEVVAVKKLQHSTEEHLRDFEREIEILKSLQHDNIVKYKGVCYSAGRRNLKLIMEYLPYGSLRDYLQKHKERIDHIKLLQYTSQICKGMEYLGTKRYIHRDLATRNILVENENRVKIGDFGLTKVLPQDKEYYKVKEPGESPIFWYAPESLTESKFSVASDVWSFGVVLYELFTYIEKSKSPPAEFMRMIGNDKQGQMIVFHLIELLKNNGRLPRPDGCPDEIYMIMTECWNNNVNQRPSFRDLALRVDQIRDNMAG", "conditions": "cited from earlier work"}}, "data": [{"smiles": "Cc1cc(Nc2nc(N[C@@H](C)c3ncc(F)cn3)ncc2Cl)n[nH]1", "note": "[AZD1480]", "values": [{"measurement": "increase in EC50 compared to native JAK2V617F", "setting": "[1]", "result": "> 7", "unit": "fold"}, {"measurement": "EC50", "setting": "[1]; Mus musculus", "result": "> 10", "unit": "µM"}, {"measurement": "increase in EC50 compared to native JAK2V617F", "setting": "[2]", "result": "> 7", "unit": "fold"}, {"measurement": "EC50", "setting": "[2]; Mus musculus", "result": "> 10", "unit": "µM"}, {"measurement": "resistance conferred by the mutations (in words)", "setting": "[3]", "result": "cross-resistance"}]}, {"smiles": "N#CCNC(=O)c1ccc(-c2ccnc(Nc3ccc(N4CCOCC4)cc3)n2)cc1", "note": "[CYT-387]", "values": [{"measurement": "resistance conferred by the mutations (in words)", "setting": "[3]", "result": "cross-resistance"}]}, {"smiles": "C[C@H](Nc1cc(-c2cnn(C)c2)cc(Nc2cnccn2)n1)c1ccc(F)cc1", "note": "[NS018]", "values": [{"measurement": "IC50", "setting": "JAK2", "result": "< 0.001", "unit": "µM"}, {"measurement": "selectivity for JAK2 over other JAK-family kinases", "setting": "JAK2", "result": "30-50 fold"}]}, {"smiles": "Cc1cnc(Nc2ccc(OCCN3CCCC3)cc2)nc1Nc1cccc(S(=O)(=O)NC(C)(C)C)c1", "note": "[TG101348]", "values": [{"measurement": "resistance conferred by the mutations (in words)", "setting": "[3]", "result": "cross-resistance"}]}]}
